Test results from patent publication US11299478B2, “2-cyanopyrimidin-4-yl carbamate or urea derivative or salt thereof, and pharmaceutical composition including same” (HANLIM PHARMACEUTICAL CO., LTD., priority 2018, dated 2022).

Tests used:
Format in all cases: biochemical
cathepsin B = cathepsin B (Homo sapiens, UniProt P07858); assay: Inhibitory activity assay against cathepsin B (enzyme assay); details: Z-Arg-Arg-AMC 40 μM, enzyme 1 nM, pH 6.0, 90 minutes
Outline: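 1 nM enzyme with 40 μM Z-Arg-Arg-AMC and compound (10.0 μM down to 0.000508 μM, 10 points) in pH 6.0 buffer of 50 mM MES, 5 mM DTT, 2.5 mM EDTA, 0.005% Polysorbate 20, 10% DMSO. Fluorescence (340/460 nm) read after 90 min; IC50 by 4-parameter logistic fit.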

cathepsin L = cathepsin L (Homo sapiens, UniProt P07711); assay: Inhibitory activity assay against cathepsin L (enzyme assay); details: Z-Phe-Arg-AMC 2 μM, enzyme 3 nM, pH 5.5, 30 minutes
cathepsin L, sequence (P07711 114-333, species assumed): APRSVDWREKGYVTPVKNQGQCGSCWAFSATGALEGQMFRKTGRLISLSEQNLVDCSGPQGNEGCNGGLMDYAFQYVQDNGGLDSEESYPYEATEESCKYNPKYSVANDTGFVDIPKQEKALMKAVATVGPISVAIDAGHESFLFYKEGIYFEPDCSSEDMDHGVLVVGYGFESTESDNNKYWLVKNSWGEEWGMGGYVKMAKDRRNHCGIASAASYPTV
Outline: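 Enzyme at 3 nM with 2 μM Z-Phe-Arg-AMC in 50 mM MES pH 5.5, 2.5 mM DTT, 2.5 mM EDTA, 0.005% Polysorbate 20, 10% DMSO; 30 min reaction, AMC fluorescence 340/460 nm. Ten-point series 10.0 μM to 0.000508 μM; IC50 by 4-parameter logistic fit.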

cathepsin K = molecular target: T1, cathepsin K (Homo sapiens, UniProt P43235); assay: Inhibitory activity assay against cathepsin K (enzyme assay); details: Z-Phe-Arg-AMC 10 μM, enzyme 1 nM, pH 5.5, 30 minutes
T1 sequence (P43235 115-329): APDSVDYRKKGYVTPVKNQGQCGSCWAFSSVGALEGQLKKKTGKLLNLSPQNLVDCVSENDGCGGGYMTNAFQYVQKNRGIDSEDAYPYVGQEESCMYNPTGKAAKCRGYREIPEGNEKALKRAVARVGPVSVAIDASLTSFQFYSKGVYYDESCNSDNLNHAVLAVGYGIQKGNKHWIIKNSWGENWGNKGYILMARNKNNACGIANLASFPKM
Outline: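 Fluorogenic assay with 1 nM cathepsin K and 10 μM Z-Phe-Arg-AMC in pH 5.5 buffer (50 mM MES, 2 mM DTT, 2.5 mM EDTA, 0.01% Triton X-100, 10% DMSO). Ten compound concentrations, 10.0 to 0.000508 μM; 30 min reaction, ex 355/em 460 nm; IC50 by 4-parameter logistic fit.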

cathepsin S = cathepsin S (Homo sapiens, UniProt P25774); assay: Inhibitory activity assay against cathepsin S (enzyme assay); details: Z-Phe-Arg-AMC 70 μM, enzyme 3 nM, pH 6.5, 45 minutes
cathepsin S, sequence (P25774 115-331, species assumed): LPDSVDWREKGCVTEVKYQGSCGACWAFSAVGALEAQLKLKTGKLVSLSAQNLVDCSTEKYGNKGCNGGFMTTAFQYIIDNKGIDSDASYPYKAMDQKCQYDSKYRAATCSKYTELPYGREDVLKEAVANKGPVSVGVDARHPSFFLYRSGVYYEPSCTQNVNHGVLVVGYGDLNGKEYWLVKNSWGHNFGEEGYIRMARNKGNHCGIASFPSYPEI
Outline: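 Cathepsin S (3 nM final) with Z-Phe-Arg-AMC substrate (70 μM final) in pH 6.5 buffer of 50 mM MES, 2.5 mM DTT, 1.0 mM EDTA, 0.001% BSA, 10% DMSO; compound 10.0 μM down to 0.000508 μM, 10 points. Fluorescence (ex 340/em 460 nm) after 45 min; IC50 by 4-parameter logistic fit.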

Row | Compound | IC50 (cathepsin B) [nM] | IC50 (cathepsin L) [nM] | IC50 (cathepsin K) [nM] | IC50 (cathepsin S) [nM]
1 | N#Cc1nccc(C2(NC(=O)Nc3ccc(-c4ccc(F)cc4)cc3)CCCCC2)n1 [Example 121, 1-(1-(2-cyanopyrimidin-4-yl)cyclohexyl)-3-(4′-fluoro-[1,1′-biphenyl]-4-yl)urea] | > 10000 | > 10000 | 17.2 | > 10000
2 | C#Cc1ccc(-c2ccc(NC(=O)NC3(c4ccnc(C#N)n4)CCCCC3)cc2)cc1 [Example 122, 1-(1-(2-cyanopyrimidin-4-yl)cyclohexyl)-3-(4′-ethynyl-[1,1′-biphenyl]-4-yl)urea] | > 10000 | > 10000 | 16.9 | > 10000
3 | N#Cc1nccc(C2(NC(=O)Nc3ccc(-c4cccc(F)c4)cc3)CCCCC2)n1 [Example 123, 1-(1-(2-cyanopyrimidin-4-yl)cyclohexyl)-3-(3′-fluoro-[1,1′-biphenyl]-4-yl)urea] | > 10000 | > 10000 | 10.2 | > 10000
4 | N#Cc1nccc(C2(NC(=O)Nc3ccc(-c4ccccc4F)cc3)CCCCC2)n1 [Example 124, 1-(1-(2-cyanopyrimidin-4-yl)cyclohexyl)-3-(2′-fluoro-[1,1′-biphenyl]-4-yl)urea] | > 10000 | > 10000 | 6.9 | > 10000
5 | N#Cc1nccc(C2(NC(=O)Nc3ccc(-c4ccc(C(F)(F)F)nc4)cc3)CCCCC2)n1 [Example 126, 1-(1-(2-cyanopyrimidin-4-yl)cyclohexyl)-3-(4-(6-(trifluoromethyl)pyridin-3-yl)phenyl)urea] | > 10000 | > 10000 | 25.1 | 5750
6 | COc1ccc(-c2ccc(NC(=O)NC3(c4ccnc(C#N)n4)CCCCC3)cc2)cn1 [Example 127, 1-(1-(2-cyanopyrimidin-4-yl)cyclohexyl)-3-(4-(6-methoxypyridin-3-yl)phenyl)urea] | > 10000 | > 10000 | 10.9 | > 10000
7 | CC(=O)Nc1ccc(-c2ccc(NC(=O)NC3(c4ccnc(C#N)n4)CCCCC3)cc2)cc1 [Example 129, N-(4′-(3-(1-(2-cyanopyrimidin-4-yl)cyclohexyl)ureido)-[1,1′-biphenyl]-4-yl)acetamide] | > 10000 | > 10000 | 4.9 | > 10000
8 | CN(C)C(=O)c1ccc(-c2ccc(NC(=O)NC3(c4ccnc(C#N)n4)CCCCC3)cc2)cc1 [Example 130, 4′-(3-(1-(2-cyanopyrimidin-4-yl)cyclohexyl)ureido)-N,N-dimethyl-[1,1′-biphenyl]-4-carboxamide] | > 10000 | > 10000 | 7.8 | 9070
9 | N#Cc1nccc(C2(NC(=O)Nc3ccc(-c4ccc(CCC(=O)O)cc4)cc3)CCCCC2)n1 [Example 131, 3-(4′-(3-(1-(2-cyanopyrimidin-4-yl)cyclohexyl)ureido)-[1,1′-biphenyl]-4-yl)propanoic acid] | > 10000 | > 10000 | 15.9 | 3930
10 | N#Cc1nccc(C2(NC(=O)Nc3ccc(Br)c(C(F)(F)F)c3)CCCCC2)n1 [Example 133, 1-(4-bromo-3-(trifluoromethyl)phenyl)-3-(1-(2-cyanopyrimidin-4-yl)cyclohexyl)urea] | > 10000 | > 10000 | 63.7 | > 10000
11 | N#Cc1nccc(C2(NC(=O)Nc3ccc(Br)cc3F)CCCCC2)n1 [Example 134, 1-(4-bromo-2-fluorophenyl)-3-(1-(2-cyanopyrimidin-4-yl)cyclohexyl)urea] | > 10000 | > 10000 | 5.3 | > 10000
12 | N#Cc1nccc(C2(NC(=O)Nc3ccc(I)c(C(F)(F)F)c3)CCCCC2)n1 [Example 136, 1-(1-(2-cyanopyrimidin-4-yl)cyclohexyl)-3-(4-iodo-3-(trifluoromethyl)phenyl)urea] | > 10000 | > 10000 | 24.5 | > 10000

Now from value to molecule:

Row | IC50 (cathepsin B) [nM] | IC50 (cathepsin L) [nM] | IC50 (cathepsin K) [nM] | IC50 (cathepsin S) [nM] | Compound
13 | > 10000 | 6790 | 9.6 | > 10000 | N#Cc1nccc(C2(NC(=O)Nc3ccc(-c4ccncc4)cc3)CCCCC2)n1 [Example 119, 1-(1-(2-cyanopyrimidin-4-yl)cyclohexyl)-3-(4-(pyridin-4-yl)phenyl)urea]
14 | 9280 | > 10000 | 3.9 | > 10000 | Cn1cc(-c2ccc(NC(=O)NC3(c4ccnc(C#N)n4)CCCCC3)cc2)cn1 [Example 120, 1-(1-(2-cyanopyrimidin-4-yl)cyclohexyl)-3-(4-(1-methyl-1H-pyrazol-4-yl)phenyl)urea]
15 | > 10000 | > 10000 | 15.2 | 5420 | N#Cc1nccc(C2(NC(=O)Nc3ccc(-c4ccc(F)nc4)cc3)CCCCC2)n1 [Example 125, 1-(1-(2-cyanopyrimidin-4-yl)cyclohexyl)-3-(4-(6-fluoropyridin-3-yl)phenyl)urea]
16 | > 10000 | > 10000 | 13.6 | 9060 | N#Cc1nccc(C2(NC(=O)Nc3ccc(-c4cccnc4)cc3)CCCCC2)n1 [Example 128, 1-(1-(2-cyanopyrimidin-4-yl)cyclohexyl)-3-(4-(pyridin-3-yl)phenyl)urea]
17 | > 10000 | > 10000 | 15.9 | > 10000 | N#Cc1nccc(C2(NC(=O)Nc3ccc(I)cc3)CCCCC2)n1 [Example 132, 1-(1-(2-cyanopyrimidin-4-yl)cyclohexyl)-3-(4-iodophenyl)urea]
18 | > 10000 | > 10000 | 38.2 | 6220 | N#Cc1nccc(C2(NC(=O)Nc3ccc(I)c(F)c3)CCCCC2)n1 [Example 137, 1-(1-(2-cyanopyrimidin-4-yl)cyclohexyl)-3-(3-fluoro-4-iodophenyl)urea]
19 | > 10000 | 4200 | 5.8 | ≥ 10000 | CN1CCN(c2ccc(NC(=O)NC3(c4ccnc(C#N)n4)CCCCC3)cc2)CC1 [Example 138, 1-(1-(2-cyanopyrimidin-4-yl)cyclohexyl)-3-(4-(4-methylpiperazin-1-yl)phenyl)urea]
20 | > 10000 | 7030 | 12.2 | > 10000 | N#Cc1nccc(C2(NC(=O)Nc3ccc(N4CCOCC4)cc3)CCCCC2)n1 [Example 139, 1-(1-(2-cyanopyrimidin-4-yl)cyclohexyl)-3-(4-morpholinophenyl)urea]
21 | > 10000 | 6570 | 21.5 | > 10000 | N#Cc1nccc(C2(NC(=O)Nc3ccc(N4CCNCC4)cc3)CCCCC2)n1 [Example 140, 1-(1-(2-cyanopyrimidin-4-yl)cyclohexyl)-3-(4-(piperazin-1-yl)phenyl)urea]
22 | > 10000 | > 10000 | 4.5 | > 10000 | CN(C)C1CCN(c2ccc(NC(=O)NC3(c4ccnc(C#N)n4)CCCCC3)cc2)CC1 [Example 141, 1-(1-(2-cyanopyrimidin-4-yl)cyclohexyl)-3-(4-(4-(dimethylamino)piperidin-1-yl)phenyl)urea]
23 | > 10000 | > 10000 | 17.9 | > 10000 | CC(C)N1CCN(c2ccc(NC(=O)NC3(c4ccnc(C#N)n4)CCCCC3)cc2)CC1 [Example 142, 1-(1-(2-cyanopyrimidin-4-yl)cyclohexyl)-3-(4-(4-isopropylpiperazin-1-yl)phenyl)urea]
24 | > 10000 | > 10000 | 2.3 | > 10000 | CC(C)(C)N1CCN(c2ccc(NC(=O)NC3(c4ccnc(C#N)n4)CCCCC3)cc2)CC1 [Example 143, 1-(4-(4-(tert-butyl)piperazin-1-yl)phenyl)-3-(1-(2-cyanopyrimidin-4-yl)cyclohexyl)urea]
25 | > 10000 | > 10000 | 18.3 | > 10000 | N#Cc1nccc(C2(NC(=O)Nc3ccc(N4CCN(C5CC5)CC4)cc3)CCCCC2)n1 [Example 144, 1-(1-(2-cyanopyrimidin-4-yl)cyclohexyl)-3-(4-(4-cyclopropylpiperazin-1-yl)phenyl)urea]
26 | > 10000 | > 10000 | 3.9 | > 10000 | CCN1CCN(c2ccc(NC(=O)NC3(c4ccnc(C#N)n4)CCCCC3)cc2)CC1 [Example 146, 1-(1-(2-cyanopyrimidin-4-yl)cyclohexyl)-3-(4-(4-ethylpiperazin-1-yl)phenyl)urea]
